Reference: patent US4117145A, “1-Substituted pyrazoles” (Bayer Aktiengesellschaft, priority 1975, dated 1978)

Test system: thromb formation (left jugular vein, rats)
Experiment: Antithrombotic action: thromb formation in supercooled left jugular vein of rats, thromb weighed 4 hours later
Assay type: in vivo, rat
Experimental: The left jugular vein of rats weighing 170 to 180 g was exposed under ether narcosis and supercooled to -12° C for 2 minutes to stimulate thromb formation. The thromb was isolated from the vein 4 hours later, and was weighed. The test animals were given the test preparation in tragacanth mucilage immediately before supercooling the wall of the blood vessel. As a result, the protective antithrombotic activity was tested in the first 4 hours after stimulating thromb formation.

`Cc1cc(OC(=O)c2ccco2)n(CCOc2ccc3ccccc3c2)n1` [Example 20, 5-(Furyl-(2)-carbonyloxy)-3-methyl-1-(2-(β-naphthyloxy)-ethyl)-pyrazole] was tested, and the “reduction of size of the thrombs” value (after a 4 hour period of action) was 61%, the “Thromb size, mean value” (rats, 10 mg/kg, administered orally immediately before supercooling, thromb isolated 4 hours later, 12 experiments, control 115 ± 12 (14 experiments)) was 45 ± 10 µg and the Inhibition in % (rats, 10 mg/kg, administered orally, versus control animals without active compound) was 61%.
